Values joined by “and” are separate entries in the source; they are usually repeats but may differ in a detail not shown here. Equal entries are not always repeated. “Also recorded” adds a separate entry of the source.
Tested on: HeLa cells
Assay: Cell penetrating activity of FITC-labelled mutant peptides, mean fluorescence intensity by FACS
Assay type: cell-based
Conditions: for penetrating activity compared with TAT: 100 μM; for mean fluorescence intensity (MFI) relative to WT, MFI of WT at 10 μM set to 1: peptide at 10 μM; for mean fluorescence intensity (MFI) relative to WT, MFI of WT at 10 μM set to 1 / mean fluorescence intensity (MFI) relative to WT / translocation efficiency compared with another peptide variant (comparator named in the value): 2 hours, FACS; for mean fluorescence intensity (MFI) relative to WT: peptide at 100 μM
Procedure: N-terminus of each peptide was labeled with fluorescence dye, FITC and C-terminus was protected. Peptide purity (>95%) was determined by HPLC. Synthesis of the peptides of the present invention was requested to PEPTRON, Inc.
HeLa cell line was propagated in DMEM supplemented with 10% FBS and 100 units/mL penicillin-streptomycin. Cells were grown in a 5% CO2 incubator at 37° C.
HeLa cells were cultured in 6-well plate until they were 70˜80% grown up before a day of the experiment. The cells were washed with DMEM of 37° C. twice, and TCTP-derived peptides synthesized in Example 5-1) were treated to the culture medium in a dose dependent manner (0, 1, 10, 100 μM), then the cells was incubated for 2 hours in an CO2 incubator at 37° C.,
After the incubation, the cells were washed in cool PBS two times and treated with 1 mg/ml trypsin for 15 min at 37° C. to digest peptides attached on cell membrane and washed in PBS twice again. Then, the cells were analyzed by FACS at emission 510 nm and excitation 530 nm for a measurement of FITC of intracellular uptake marker (FIGS. 7, 8 and 9). Intracellular translocation efficiency of mutant peptides, TCTP-CPP#1-35(SEQ ID Nos.: 20-54) was compared to wild type(WT), TCTP(1-10)(SEQ ID No.: 1) and control peptide, TAT(48-57).

| Sequence | mean fluorescence intensity (MFI) relative to WT, MFI of WT at 10 μM set to 1 | translocation efficiency compared with another peptide variant (comparator named in the value) | further results |
| --- | --- | --- | --- |
| MIIYRALISHKK (mutant peptide based on human sequence; (1)..(12) TCTP-CPP#7) [SEQ ID No.: 26] | 6.04 times |  | penetrating activity compared with TAT: better penetrating activity than TAT(100 μM); cell penetrating activity compared with WT SEQ ID No.: 1 (concentration not given): increased cell penetrating activity; mean fluorescence intensity (MFI) relative to WT: 144.6 times |
| MIIFRIAAYHKK (mutant peptide based on human sequence; (1)..(12) TCTP-CPP#20) [SEQ ID No.: 39] | 25.0 times | lower than SEQ ID No.: 34 at the concentration of 100 μM |  |
| MIIYRDKKSH (mutant peptide based on human sequence; (1)..(10) TCTP-CPP#2) [SEQ ID No.: 21] |  |  | cell penetrating activity compared with WT SEQ ID No.: 1 (concentration not given): decreased twice |
| CIISRDLISH (mutant peptide based on human sequence; (1)..(10) TCTP-CPP#6) [SEQ ID No.: 25] | 0.91 times |  | mean fluorescence intensity (MFI) relative to WT: 1.81 times |
| MIIFRAAASHKK (mutant peptide based on human sequence; (1)..(12) TCTP-CPP#14) [SEQ ID No.: 33] | 3.2 times | similarly increased at 100 μM |  |
| LIIFRIAASHKK (mutant peptide based on human sequence; (1)..(12) TCTP-CPP#16) [SEQ ID No.: 35] | 29.53 times | increased result of translocation efficiency at the concentration of 10 μM and a decreased result at 100 μM, compared to SEQ ID No.: 31 |  |
| FIIFRIAASHKK (mutant peptide based on human sequence; (1)..(12) TCTP-CPP#15) [SEQ ID No.: 34] |  | increased result of translocation efficiency at the concentration of 10 μM and a decreased result at 100 μM, compared to SEQ ID No.: 31 |  |
| WIIFRIAASHKK (mutant peptide based on human sequence; (1)..(12) TCTP-CPP#17) [SEQ ID No.: 36] | 18.4 times | stronger than SEQ ID No.: 40(WT-IX:Y) and SEQ ID No.: 42(WT-IX:T) only at 10 μM |  |
| WIIFKIAASHKK (mutant peptide based on human sequence; (1)..(12) TCTP-CPP#25) [SEQ ID No.: 44] | 15.04 times |  |  |
| MIIFAIAASHKK (mutant peptide based on human sequence; (1)..(12) TCTP-CPP#26) [SEQ ID No.: 45] | 11.47 times |  |  |
| WIIFRALISHKK (mutant peptide based on human sequence; (1)..(12) TCTP-CPP#19) [SEQ ID No.: 38] | 55.6 times | lower than SEQ ID No.: 34 at the concentration of 100 μM; also recorded: substitution for tryptophan did not increase translocation efficiency |  |
| LIIFRILISHHH (mutant peptide based on human sequence; (1)..(12) TCTP-CPP#30) [SEQ ID No.: 49] |  |  | cell penetrating activity compared with TAT (concentration not given): excellent activity compared with TAT |
| LIIFRILISHKK (mutant peptide based on human sequence; (1)..(12) TCTP-CPP#27) [SEQ ID No.: 46] | 3.75 times | substitution for leucine caused the decreased penetrating activity |  |
| MIIYRIAASHKK (mutant peptide based on human sequence; (1)..(12) TCTP-CPP#8) [SEQ ID No.: 27] | 1.73 times |  | penetrating activity compared with TAT: better penetrating activity than TAT(100 μM); cell penetrating activity compared with WT SEQ ID No.: 1 (concentration not given): increased cell penetrating activity; mean fluorescence intensity (MFI) relative to WT: 342.9 times |
| MIIFKIAASHKK (mutant peptide based on human sequence; (1)..(12) TCTP-CPP#24) [SEQ ID No.: 43] | 12.1 times |  |  |
| MIIFRDLISH (mutant peptide based on human sequence; (1)..(10) TCTP-CPP#3) [SEQ ID No.: 22] | 19.63 times |  | penetrating activity compared with TAT: better penetrating activity than TAT(100 μM); mean fluorescence intensity (MFI) relative to WT: 216.75 times |
| LIIFAIAASHKK (mutant peptide based on human sequence; (1)..(12) TCTP-CPP#34) [SEQ ID No.: 53] | 8.24 times |  |  |
| MIIFRIAASHKK (mutant peptide based on human sequence; (1)..(12) TCTP-CPP#12) [SEQ ID No.: 31] | 29 times and 26.77 times | similarly increased at 100 μM |  |
| WIIFRAAASHKK (mutant peptide based on human sequence; (1)..(12) TCTP-CPP#18) [SEQ ID No.: 37] | 52.0 times | lower than SEQ ID No.: 34 at the concentration of 100 μM; also recorded: substitution for tryptophan did not increase translocation efficiency |  |
| MIIFRILISHKK (mutant peptide based on human sequence; (1)..(12) TCTP-CPP#28) [SEQ ID No.: 47] | 7.04 times |  |  |
| MIIYRAEISH (mutant peptide based on human sequence; (1)..(10) TCTP-CPP#10) [SEQ ID No.: 29] |  |  | cell penetrating activity compared with WT SEQ ID No.: 1 (concentration not given): decreased to same degree with alanine substituent |

From patent US9907857B2, “Peptide having cell membrane penetrating activity” (EWHA UNIVERSITY-INDUSTRY COLLABORATION FOUNDATION, priority 2006, dated 2018)
